From patent publication US5475007A, “1,2,3,4-tetrahydroquinoline-2,3,4-trione-3 or 4-oximes and the use thereof” (priority 1993, dated 1995)
pIC50, pKd, pKi: −log10 of the molar value. Where two headings read alike, the source gives them in different places.

Columns and labels:
[1] = system: glycine binding site of the NMDA receptor; conditions: cited from earlier work
[2] = in words; cited from earlier work
[3] = in words; cited from earlier work; remark: listed apart in the source
[4] = cited from earlier work; for PCP-like behavioral side effects: in words
[5] = target: glycine binding site of the NMDA receptor (Rattus norvegicus, UniProt P35439); experiment: 1 μM glycine-stimulated [^3 H]-MK801 binding assay (glycine binding assay); conditions: for potency relative to DCK: DCK = 5,7-dichlorokynurenic acid; for binding to the glycine receptor / selectivity for the glycine receptor: in words
[6] = mouse maximum electroshock seizure model (i.p.); type: in vivo; conditions: 70 mg/kg i.p. in DMSO, 1 hour before stimulus, 10 mice
Method: 5,7-Dichloro-1,2,3,4-tetrahydroquinoline-2,3,4-trione-3-oxime was evaluated for anticonvulsant activity after i.p. administration in the mouse maximum electroshock seizure model. Mice, 30-35 g (male) were injected i.p. with 70 mg/kg of the drug dissolved in DMSO (1 ul/g). Ten mice each were used in the drug and control groups. The control group was injected with an equal volume of DMSO. Seizures were elicited by stimulation with corneal electrodes. The stimulation parameters for eliciting the seizures were as follows: 50 mA, 60 pulses/second square wave, 0.8 ms pulse width, 0.2 sec length of stimulus. Under these conditions, 100% of control animals developed tonic hindlimb extension immediately after the corneal electrical stimulation. A Hugo Basile electroshock seizure stimulator was used for these experiments. The seizure stimulus was applied 1 hour after injection of the drug.

PCP receptor = conditions: Wong et al. 1986; cited from earlier work
[7] = pigeons; cited from earlier work
[8] = Table 1, glycine binding site, read-out: Ki Gly

## NC1CCN(O)C1=O (racemic) [HA-966]
[1]; in words
  agonism and affinity at the glycine binding site: partial agonist with micromolar affinity for the glycine binding site
[2]
  penetration of the blood/brain barrier: sufficiently penetrates the blood/brain barrier

## O=C(O)c1cc(O)c2c(Cl)cc(Cl)cc2n1 [5,7-dichlorokynurenic acid]
[1]; in words
  receptor binding affinity in vitro: relatively high receptor binding affinity in vitro

## O=C(O)c1cc(O)c2ccc(Cl)cc2n1 [7-Cl-kynurenic acid]
[1]; in words
  receptor binding affinity in vitro: relatively high receptor binding affinity in vitro
[2]
  penetration of the blood/brain barrier: cannot penetrate the blood/brain barrier

## O=C(O)[C@@H]1C[C@H](CP(=O)(O)O)CCN1 [CGS 19755]
[3]
  neuroprotective efficacy: have neuroprotective efficacy
[4]
  PCP-like behavioral side effects: adverse PCP-like behavioral side effects

## O=C1Nc2ccccc2C(=NO)C1=O [Compound 14a, 1,2,3,4-Tetrahydroquinoline-2,3,4-trione-4-oxime]
[5]; 1 μM glycine
  pIC50: 4.74
[5]
  potency relative to DCK: 14 % of DCK
  binding to the glycine receptor: high binding
  selectivity for the glycine receptor: highly selective
[5]; [8]
  pKi: 5.77

## O=C1Nc2ccccc2C(=O)C1=NO [Compound 17a, 1,2,3,4-Tetrahydroquinoline-2,3,4-trione-3-oxime]
[5]
  pKi: 4.70
  potency relative to DCK: 1.3 % of DCK
  binding to the glycine receptor: high binding
  selectivity for the glycine receptor: highly selective

## O=C1Nc2cc(Cl)cc(Cl)c2C(=O)C1=NO [Compound 17b, 5,7-Dichloro-1,2,3,4-tetrahydroquinoline-2,3,4-trione-3-oxime]
[5]
  pKi: 7.70
  potency relative to DCK: 1126 % of DCK
[5]; Ki ratio versus 17a
  times more active than the unsubstituted compound 17a: about 1000 times
[6]
  prevention of seizures: prevented seizures from occurring in out of 10 animals

## O=C1Nc2cc(Cl)c(Cl)cc2C(=O)C1=NO [Compound 17c, 6,7-Dichloro-1,2,3,4-tetrahydroquinoline-2,3,4-trione-3-oxime]
[5]
  pKi: 7.30
  potency relative to DCK: 439 % of DCK

## O=C1Nc2ccc(Cl)c(Cl)c2C(=O)C1=NO [Compound 17d, 5,6-Dichloro-1,2,3,4-tetrahydroquinoline-2,3,4-trione-3-oxime]
[5]
  pKi: 6.44
  potency relative to DCK: about 55 % of DCK

## O=C1Nc2cc(Cl)c(Cl)c(Cl)c2C(=O)C1=NO [Compound 17e, 5,6,7-Trichloro-1,2,3,4-tetrahydroquinoline-2,3,4-trione-3-oxime]
[5]
  pKi: 7.30
  potency relative to DCK: about 400 % of DCK

## CC(=O)ON=C1C(=O)Nc2cc(Cl)cc(Cl)c2C1=O [Compound 18b, 5,7-Dichloro-1,2,3,4-tetrahydroquinoline-2,3,4-trione-3-acetyloxime]
[5]
  potency relative to DCK: 142 % of DCK
[5]; [8]
  pKi: 6.82
[5]; glycine/NMDA receptor, read-out: Ki value
  pKi: 6.80

## O=C(O)[C@@H]1C[C@H]2C[C@@H](CP(=O)(O)O)CC[C@H]2CN1 [LY274614]
[3]
  neuroprotective efficacy: have neuroprotective efficacy

## C[C@]12N[C@H](Cc3ccccc31)c1ccccc12 [MK-801]
[3]
  neuroprotective efficacy: neuroprotective efficacy both in vitro and in vivo
[4]
  PCP-like behavioral side effects: adverse PCP-like behavioral side effects
PCP receptor
  pKd: ~8.52

## c1ccc(C2(N3CCCCC3)CCCCC2)cc1 [PCP, phencyclidine]
[3]
  neuroprotective efficacy: neuroprotective efficacy both in vitro and in vivo
[4]; rodents
  behavioral excitation (hyperlocomotion): behavioral excitation
[7]
  katalepsy: characteristic katalepsy in pigeons

## COc1ccc2c(c1)[C@]13CCCC[C@@H]1[C@H](C2)N(C)CC3 [dextromethorphan]
[3]
  neuroprotective efficacy: neuroprotective efficacy both in vitro and in vivo

## NCC(=O)O [glycine]
[1]; used in Cheng and Prusoff equation, read-out: known affinity of glycine for the glycine binding site
  pKd: 7.00

## O=C(O)c1cc2ccccc2[nH]1 [indole-2-carboxylic acid]
[1]; in words
  receptor binding affinity in vitro: relatively high receptor binding affinity in vitro
[2]
  penetration of the blood/brain barrier: cannot penetrate the blood/brain barrier

## CNC1(c2ccccc2Cl)CCCCC1=O (centres unmarked) [ketamine]
[3]
  neuroprotective efficacy: neuroprotective efficacy both in vitro and in vivo
